Source: ChEMBL document CHEMBL4840338, “Cudraflavone C from Artocarpus hirsutus as a Promising Inhibitor of Pathogenic, Multidrug-Resistant S. aureus, Persisters, and Biofilms: A New Insight into a Rational Explanation of Traditional Wisdom” (J Nat Prod, 2021)
In brackets after ≈: the same amount, converted by molar mass. Activity calls are given as the source filed them. The calls are words filed in the database; no cut-off is given here.

What was measured:
Klebsiella pneumoniae = assay: Antibacterial activity against Klebsiella pneumoniae BAA-1705 assessed as bacterial growth inhibition incubated for 16 to 18 hrs by broth microdilution method; assay type: functional; details: time 16-18 hrs
Pseudomonas aeruginosa = assay: Antibacterial activity against Pseudomonas aeruginosa ATCC 27853 assessed as bacterial growth inhibition incubated for 16 to 18 hrs by broth microdilution method; assay type: functional; details: time 16-18 hrs
Escherichia coli [1] = assay: Antibacterial activity against Escherichia coli ATCC 25922 assessed as bacterial growth inhibition incubated for 16 to 18 hrs by broth microdilution method; assay type: functional; details: time 16-18 hrs
Staphylococcus aureus [2] = assay: microbe, parasite or virus in culture; details: ATCC 29213
Description: Antibacterial activity against Staphylococcus aureus ATCC 29213 assessed as bacterial growth inhibition incubated for 16 to 18 hrs by broth microdilution method

Acinetobacter baumannii [3] = assay: Antibacterial activity against Acinetobacter baumannii BAA 1605 assessed as bacterial growth inhibition incubated for 16 to 18 hrs by broth microdilution method; assay type: functional; details: time 16-18 hrs
Enterococcus = assay: Antibacterial activity against Enterococcus NR 31884 assessed as bacterial growth inhibition incubated for 16 to 18 hrs by broth microdilution method; assay type: functional; details: time 16-18 hrs
Staphylococcus aureus [4] = assay: Antibacterial activity against Staphylococcus aureus ATCC 29213 assessed as time for increase by 1 log10CFU at 1XMIC incubated for 1 hr followed by drug wash-out and measured every single 1 hr; assay type: functional
Escherichia coli [5] = assay: Antibacterial activity against Escherichia coli ATCC 25922 assessed as bacterial growth inhibition in presence of outermembrane permeabilizer, PMBN incubated for 16 to 18 hrs by broth microdilution method; assay type: functional; details: time 16-18 hrs
Acinetobacter baumannii [6] = assay: Antibacterial activity against Acinetobacter baumannii BAA-1605 ssessed as bacterial growth inhibition in presence of outermembrane permeabilizer, PMBN incubated for 16 to 18 hrs by broth microdilution method; assay type: functional; details: time 16-18 hrs
Staphylococcus aureus [7] = assay: Antibacterial activity against Staphylococcus aureus ATCC 29213 infected in mouse J774.A1 assessed as reduction in intracellular bacterial burden at 5XMIC incubated for 24 hrs followed by replating on TSA plate for 24 hrs by intracellular killing assay; assay type: functional; details: time 48.0 hrs
Staphylococcus aureus [8] = assay: Antibacterial activity against Staphylococcus aureus ATCC 29213 assessed as time for increase by 1 log10CFU at 10XMIC incubated for 1 hr followed by drug wash-out and measured every single 1 hr; assay type: functional
Staphylococcus aureus [9] = assay: Bactericidal activity against Staphylococcus aureus ATCC 29213 assessed as reduction in bacterial load at 1X MIC preincubated for 6 hrs followed by subculturing on TSA plate for 18 to 20 hrs by time-kill assay; assay type: functional; details: time 24-26 hrs
Staphylococcus aureus [10] = assay: Antibiofilm activity against Staphylococcus aureus ATCC 29213 assessed as reduction in preformed bacterial biofilm at 10XMIC incubated for 24 hrs by crystal violet staining based microtiter plate reader assay; assay type: functional
Staphylococcus aureus [11] = assay: Antibacterial activity against Staphylococcus aureus ATCC 29213 assessed as time for post-antibiotic effect at 10XMIC incubated for 1 hr followed by drug wash-out and measured every single 1 hr; assay type: functional
Staphylococcus aureus [12] = assay: Antibacterial activity against Staphylococcus aureus ATCC 29213 assessed as time for post-antibiotic effect at 1XMIC incubated for 1 hr followed by drug wash-out and measured every single 1 hr; assay type: functional
Staphylococcus aureus [13] = assay: Antibiofilm activity against Staphylococcus aureus ATCC 29213 assessed as reduction in preformed bacterial biofilm at 1XMIC incubated for 24 hrs by crystal violet staining based microtiter plate reader assay; assay type: functional
Staphylococcus aureus [14] = assay: Antibacterial activity against Staphylococcus aureus ATCC 29213 assessed as reduction in bacterial growth at sub-MIC incubated for 25 days; assay type: functional, organism-based; details: time 25.0 day

| Structure (SMILES) | MIC (Klebsiella pneumoniae) | MIC (Pseudomonas aeruginosa) | MIC (Escherichia coli [1]) | MIC (Staphylococcus aureus [2]) | MIC (Acinetobacter baumannii [3]) | MIC (Enterococcus) | also measured |
| --- | --- | --- | --- | --- | --- | --- | --- |
| COc1cc2oc3c(c(=O)c2c(O)c1/C=C/C(C)C)C(C=C(C)C)Oc1cc(O)ccc1-3 (stereo not drawn) | > 64 µg/mL | > 64 µg/mL | > 64 µg/mL | > 64 µg/mL | > 64 µg/mL | > 64 µg/mL |  |
| CN[C@H](CC(C)C)C(=O)N[C@H]1C(=O)N[C@@H](CC(N)=O)C(=O)N[C@H]2C(=O)N[C@H]3C(=O)N[C@H](C(=O)N[C@H](C(=O)O)c4cc(O)cc(O)c4-c4cc3ccc4O)[C@H](O)c3ccc(c(Cl)c3)Oc3cc2cc(c3O[C@@H]2O[C@H](CO)[C@@H](O)[C@H](O)[C@H]2O[C@H]2C[C@](C)(N)[C@H](O)[C@H](C)O2)Oc2ccc(cc2Cl)[C@H]1O [VANCOMYCIN] |  |  | 512 µg/mL (≈ 353 µM) |  | 256 µg/mL (≈ 177 µM) |  | Time (Staphylococcus aureus [4]): 3 h; MIC (Escherichia coli [5]): 128 µg/mL; MIC (Acinetobacter baumannii [6]): 64 µg/mL; Activity (Staphylococcus aureus [7]): inactive; Time (Staphylococcus aureus [8]): 3.5 h; Activity (Staphylococcus aureus [9]): 1 log10CFU/ml; inhibition (INH) (Staphylococcus aureus [10]): 7.7%; Time (Staphylococcus aureus [11]): 1.5 h; Time (Staphylococcus aureus [12]): 1 h; Activity (Staphylococcus aureus [13]): inactive |
| CN(C)c1ccc(O)c2c1C[C@H]1C[C@H]3[C@H](N(C)C)C(O)=C(C(N)=O)C(=O)[C@@]3(O)C(O)=C1C2=O [MINOCYCLINE] |  |  |  | 0.25 µg/mL (≈ 0.546 µM) |  |  |  |
| Oc1cc(O)cc(/C=C/c2ccc(O)cc2O)c1 [OXYRESVERATROL] | > 64 µg/mL | > 64 µg/mL | > 64 µg/mL | > 64 µg/mL | > 64 µg/mL | > 64 µg/mL |  |
| CCCCCCCCCC(=O)N[C@@H](Cc1c[nH]c2ccccc12)C(=O)N[C@H](CC(N)=O)C(=O)N[C@@H](CC(=O)O)C(=O)N[C@@H]1C(=O)NCC(=O)N[C@@H](CCCN)C(=O)N[C@@H](CC(=O)O)C(=O)N[C@H](C)C(=O)N[C@@H](CC(=O)O)C(=O)NCC(=O)N[C@H](CO)C(=O)N[C@@H]([C@H](C)CC(=O)O)C(=O)N[C@@H](CC(=O)c2ccccc2N)C(=O)O[C@@H]1C |  |  |  | 1 µg/mL (≈ 0.617 µM) |  |  |  |
| CO[C@H]1/C=C/O[C@@]2(C)Oc3c(C)c(O)c4c(O)c(c(/C=N/N5CCN(C)CC5)c(O)c4c3C2=O)NC(=O)/C(C)=C\C=C\[C@H](C)[C@H](O)[C@@H](C)[C@@H](O)[C@@H](C)[C@H](OC(C)=O)[C@@H]1C [RIFAMPIN] |  |  | 8 µg/mL (≈ 9.72 µM) | 0.0078 µg/mL (≈ 0.00948 µM) | 2 µg/mL (≈ 2.43 µM) |  | MIC (Escherichia coli [5]): 0.06 µg/mL; MIC (Acinetobacter baumannii [6]): 0.03 µg/mL |
| CC(C)=CC1Oc2cc(O)ccc2-c2oc3cc4c(c(O)c3c(=O)c21)C=CC(C)(C)O4 (stereo not drawn) [CUDRAFLAVONE A] | > 64 µg/mL | > 64 µg/mL | > 64 µg/mL | > 64 µg/mL | > 64 µg/mL | > 64 µg/mL |  |
| C[C@@H](O)[C@H]1C(=O)N2C(C(=O)O)=C(S[C@@H]3CN[C@H](C(=O)N(C)C)C3)[C@H](C)[C@H]12 [MEROPENEM] |  |  |  | 1 µg/mL (≈ 2.61 µM) |  |  |  |
| C[C@H]1COc2c(N3CCN(C)CC3)c(F)cc3c(=O)c(C(=O)O)cn1c23.C[C@H]1COc2c(N3CCN(C)CC3)c(F)cc3c(=O)c(C(=O)O)cn1c23.O [LEVOFLOXACIN] | 64 µg/mL | 0.5 µg/mL |  | 0.125 µg/mL |  | 0.25 µg/mL | Time (Staphylococcus aureus [4]): 2.5 h; Activity (Staphylococcus aureus [14]): inactive; Time (Staphylococcus aureus [8]): 3 h; Time (Staphylococcus aureus [11]): 1 h; Time (Staphylococcus aureus [12]): 0.5 h |
| CC(C)(O/N=C(\C(=O)N[C@@H]1C(=O)N2C(C(=O)[O-])=C(C[n+]3ccccc3)CS[C@H]12)c1csc(N)n1)C(=O)O [CEFTAZIDIME] |  |  |  | 16 µg/mL (≈ 29.3 µM) |  |  |  |
